The source made the active and inactive calls. No cut-off for these calls is given here.
Key:
[1] = target: Protein cereblon/Cyclin-dependent kinase 6 (Homo sapiens) (UniProt Q00534+Q96SW2); assay: PROTAC activity at CRBN/CDK6 in human NCI-H3122 cells assessed as reduction in CDK6 protein level at 1 to 10 uM incubated for 24 hrs by Western blot analysis; format: cell-based; details: dose 1-10 µM
NCI-H2228 [2] = assay: Antiproliferative activity against human NCI-H2228 cells assessed as inhibition of cell growth incubated for 3 to 5 days by MTT assay; format: functional, cell-based
NCI-H1299 [3] = assay: Antiproliferative activity against human NCI-H1299 cells assessed as inhibition of cell growth pretreated with GSH followed by compound addition and incubated for 3 to 5 days by MTT assay; format: functional, cell-based
NCI-H3122 [4] = assay: Antiproliferative activity against human NCI-H3122 cells assessed as inhibition of cell growth incubated for 3 to 5 days by MTT assay; format: functional, cell-based
NCI-H2228 [5] = assay: Antiproliferative activity against human NCI-H2228 cells assessed as inhibition of cell growth pretreated with GSH followed by compound addition and incubated for 3 to 5 days by MTT assay; format: functional, cell-based
NCI-H1299 [6] = assay: Antiproliferative activity against human NCI-H1299 cells assessed as inhibition of cell growth incubated for 3 to 5 days by MTT assay; format: functional, cell-based
NCI-H3122 [7] = assay: Antiproliferative activity against human NCI-H3122 cells assessed as inhibition of cell growth pretreated with GSH followed by compound addition and incubated for 3 to 5 days by MTT assay; format: functional, cell-based
[8] = target: Cyclin-dependent kinase 4 (Homo sapiens) (UniProt P11802); assay: Inhibition of CDK4 (unknown origin) at 0.05 uM by LANCE Ultra TR-FRET assay relative to control
[9] = target: Cyclin-dependent kinase 6 (Homo sapiens) (UniProt Q00534); assay: Inhibition of CDK6 (unknown origin) at 0.05 uM by LANCE Ultra TR-FRET assay relative to control
NCI-H3122 [10] = assay: Antiproliferative activity against human NCI-H3122 cells assessed as inhibition of cell growth incubated for 5 days by MTT assay; format: functional, cell-based; details: NCI-H3122, 120 h
[11] = target: Cyclin-dependent kinase 4 (Homo sapiens) (UniProt P11802); assay: Inhibition of CDK4 (unknown origin) at 1 uM by LANCE Ultra TR-FRET assay relative to control
[12] = target: Cyclin-dependent kinase 6 (Homo sapiens) (UniProt Q00534); assay: Inhibition of CDK6 (unknown origin) at 1 uM by LANCE Ultra TR-FRET assay relative to control

Protein cereblon/Cyclin-dependent kinase 6 (Homo sapiens), sequence (Q00534 whole entry, looked up): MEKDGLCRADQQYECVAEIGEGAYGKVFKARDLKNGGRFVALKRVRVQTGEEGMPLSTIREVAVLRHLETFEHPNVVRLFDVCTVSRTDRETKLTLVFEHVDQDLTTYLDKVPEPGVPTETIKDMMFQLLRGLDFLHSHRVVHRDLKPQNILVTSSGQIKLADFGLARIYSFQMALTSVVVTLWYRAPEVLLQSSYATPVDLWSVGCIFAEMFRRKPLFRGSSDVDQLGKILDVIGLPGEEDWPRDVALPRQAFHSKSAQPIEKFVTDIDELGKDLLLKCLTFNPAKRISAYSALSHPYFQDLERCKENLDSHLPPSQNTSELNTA
Protein cereblon/Cyclin-dependent kinase 6 (Homo sapiens), sequence (Q96SW2 whole entry, looked up): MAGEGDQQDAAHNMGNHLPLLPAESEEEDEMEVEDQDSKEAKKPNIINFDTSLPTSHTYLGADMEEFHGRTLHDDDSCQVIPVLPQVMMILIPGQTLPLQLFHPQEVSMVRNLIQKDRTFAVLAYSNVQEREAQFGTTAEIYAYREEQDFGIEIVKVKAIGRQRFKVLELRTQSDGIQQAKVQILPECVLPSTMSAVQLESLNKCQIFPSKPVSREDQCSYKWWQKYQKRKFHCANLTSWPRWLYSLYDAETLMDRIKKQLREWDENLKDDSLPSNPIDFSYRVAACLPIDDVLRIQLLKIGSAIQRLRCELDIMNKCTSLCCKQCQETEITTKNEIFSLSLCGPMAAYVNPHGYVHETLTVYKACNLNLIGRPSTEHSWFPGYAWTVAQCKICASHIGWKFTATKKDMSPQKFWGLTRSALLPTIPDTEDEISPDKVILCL
Cyclin-dependent kinase 4 (Homo sapiens), sequence (P11802 whole entry): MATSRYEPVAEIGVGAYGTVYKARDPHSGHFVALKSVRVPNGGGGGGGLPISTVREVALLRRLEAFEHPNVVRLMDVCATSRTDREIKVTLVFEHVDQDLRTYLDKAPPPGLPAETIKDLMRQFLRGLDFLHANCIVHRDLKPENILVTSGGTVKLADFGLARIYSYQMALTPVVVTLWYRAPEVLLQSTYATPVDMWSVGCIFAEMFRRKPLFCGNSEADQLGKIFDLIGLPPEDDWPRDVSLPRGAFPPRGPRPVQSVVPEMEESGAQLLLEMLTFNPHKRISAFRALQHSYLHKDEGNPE
Cyclin-dependent kinase 6 (Homo sapiens), sequence (Q00534 whole entry): as the sequence (Q00534 whole entry, looked up) above

Compound | Activity [1] | IC50 (NCI-H2228 [2]) [µM] | IC50 (NCI-H1299 [3]) [µM] | IC50 (NCI-H3122 [4]) [µM] | IC50 (NCI-H2228 [5]) [µM] | IC50 (NCI-H1299 [6]) [µM] | IC50 (NCI-H3122 [7]) [µM] | inhibition [8] [%] | inhibition [9] [%] | IC50 (NCI-H3122 [10]) [nM] | inhibition [11] [%] | inhibition [12] [%]
CC(=O)c1c(C)c2cnc(Nc3ccc(N4CCN(CC(=O)NCCSSCCN(CC(=O)Nc5cccc6c5C(=O)N(C5CCC(=O)NC5=O)C6=O)C(=O)CCCCCCCCCCC(=O)N5CCC(c6cc(OC(C)C)c(Nc7ncc(Cl)c(Nc8ccccc8S(=O)(=O)C(C)C)n7)cc6C)CC5)CC4)cn3)nc2n(C2CCCC2)c1=O (centres undefined) | inactive | > 50 | > 50 | > 50 | > 50 | > 50 | 31.2 |  |  |  |  | 
CC(=O)c1c(C)c2cnc(Nc3ccc(N4CCN(CC(=O)NCCSSCCN(CC(=O)Nc5cccc6c5C(=O)N(C5CCC(=O)NC5=O)C6=O)C(=O)CCCCCCC(=O)N5CCC(c6cc(OC(C)C)c(Nc7ncc(Cl)c(Nc8ccccc8S(=O)(=O)C(C)C)n7)cc6C)CC5)CC4)cn3)nc2n(C2CCCC2)c1=O (centres undefined) | inactive | > 50 | 10.7 | 6.92 | > 50 | 28.3 | 2.35 |  |  |  |  | 
CC(=O)c1c(C)c2cnc(Nc3ccc(N4CCN(CC(=O)NCCS)CC4)cn3)nc2n(C2CCCC2)c1=O |  |  |  |  |  |  |  | 58.1 | 93.4 | 1230 | 94.5 | 99.5
CC(=O)c1c(C)c2cnc(Nc3ccc(N4CCN(CC(=O)NCCSSCCN(CC(=O)Nc5cccc6c5C(=O)N(C5CCC(=O)NC5=O)C6=O)C(=O)CCCCCCCCC(=O)N5CCC(c6cc(OC(C)C)c(Nc7ncc(Cl)c(Nc8ccccc8S(=O)(=O)C(C)C)n7)cc6C)CC5)CC4)cn3)nc2n(C2CCCC2)c1=O (centres undefined) | inactive | > 50 | 25.1 | 10.9 | > 50 | > 50 | 4.46 |  |  |  |  | 
CC(=O)c1c(C)c2cnc(Nc3ccc(N4CCN(CC(=O)NCCSSCCN(CC(=O)NCCNc5cccc6c5C(=O)N(C5CCC(=O)NC5=O)C6=O)C(=O)CCC(=O)N5CCC(c6cc(OC(C)C)c(Nc7ncc(Cl)c(Nc8ccccc8S(=O)(=O)C(C)C)n7)cc6C)CC5)CC4)cn3)nc2n(C2CCCC2)c1=O (centres undefined) | inactive | > 50 | 12.9 | 31.5 | 11 | > 50 | 22.8 |  |  |  |  | 

Second part, the molecule after the results:

Activity [1] | IC50 (NCI-H2228 [2]) [µM] | IC50 (NCI-H1299 [3]) [µM] | IC50 (NCI-H3122 [4]) [µM] | IC50 (NCI-H2228 [5]) [µM] | IC50 (NCI-H1299 [6]) [µM] | IC50 (NCI-H3122 [7]) [µM] | inhibition [8] [%] | inhibition [9] [%] | IC50 (NCI-H3122 [10]) [nM] | inhibition [11] [%] | inhibition [12] [%] | Compound
inactive | 15.4 | 10.3 | 2.24 | 3.15 | 30.2 | 0.92 |  |  |  |  |  | CC(=O)c1c(C)c2cnc(Nc3ccc(N4CCN(CC(=O)NCCSSCCN(CC(=O)NCCNc5cccc6c5C(=O)N(C5CCC(=O)NC5=O)C6=O)C(=O)CCCCCCCCC(=O)N5CCC(c6cc(OC(C)C)c(Nc7ncc(Cl)c(Nc8ccccc8S(=O)(=O)C(C)C)n7)cc6C)CC5)CC4)cn3)nc2n(C2CCCC2)c1=O (centres undefined)
inactive | 25.8 | 21.5 | 10.6 | 17 | 36.7 | 3.47 |  |  |  |  |  | CC(=O)c1c(C)c2cnc(Nc3ccc(N4CCN(CC(=O)NCCSSCCN(CC(=O)NCCNc5cccc6c5C(=O)N(C5CCC(=O)NC5=O)C6=O)C(=O)CCCCCCCCCCC(=O)N5CCC(c6cc(OC(C)C)c(Nc7ncc(Cl)c(Nc8ccccc8S(=O)(=O)C(C)C)n7)cc6C)CC5)CC4)cn3)nc2n(C2CCCC2)c1=O (centres undefined)
inactive | 9.58 | 13.5 | 1.02 | 4.07 | 25.6 | 0.77 |  |  |  |  |  | CC(=O)c1c(C)c2cnc(Nc3ccc(N4CCN(CC(=O)NCCSSCCN(CC(=O)NCCNc5cccc6c5C(=O)N(C5CCC(=O)NC5=O)C6=O)C(=O)CCCCC(=O)N5CCC(c6cc(OC(C)C)c(Nc7ncc(Cl)c(Nc8ccccc8S(=O)(=O)C(C)C)n7)cc6C)CC5)CC4)cn3)nc2n(C2CCCC2)c1=O (centres undefined)

— ChEMBL document CHEMBL5321200, “Discovery of the GSH responsive "Y-PROTACs" targeting ALK and CDK4/6 as a potential treatment for cancer” (Eur J Med Chem, 2023)
